In test [1] the target is E. coli DNA gyrase (GyrA-B) (Escherichia coli, UniProt P0AES4). Briefly: Supercoiling assay of E. coli gyrase. The following applies: supercoiling activity of E. coli gyrase (GyrA-B); read-out: GyrA-B IC50 (Enzyme). Format: biochemical. The method, then: Method 1: Supercoiling Assay of E. Coli Gyrase
Enzymatic activity of E. coli DNA gyrase reconstituted from its purified subunits was assessed by monitoring the introduction of supercoils into the relaxed plasmid pHOT-1 (TopoGEN, TG2035-3). To form the functional gyrase A2B2 heterotetrameric enzyme, equal molar concentrations of the GyrA and GyrB subunits were combined at high protein concentration (500 nM) and incubated on ice for 1 hour prior to assay start in reaction buffer without ATP or the pHOT-1 plasmid. The reaction mixture (25 μl) contained 10 nM enzyme, 10 ng/μl pHOT-1, 1 mM ATP, 35 mM Tris-HCl pH 7.5, 24 mM KCl, 4 mM MgCl2, 2 mM DTT, 1.8 mM spermidine, 6.5% glycerol, and 100 μg/ml bovine serum albumin. The reaction was carried out at 37° C. for 90 minutes and terminated by the addition of 2.5 μl of 10× stop solution (0.9% SDS, 50% glycerol, 0.05% bromophenol blue). […] Gels were stained with ethidium bromide (0.5 μg/ml) for 30 minutes and destained in water for 20 minutes. All gels were analyzed using the BIO-RAD ChemiDocTm XRS+ with Image Lab 3.0 software. The 50% inhibition concentration (IC50) was determined as being the compound concentration at which the supercoiled band was reduced by 50% from the DMSO drug free control (Microsoft Excel 2010 IDBS XLfit, GraftPad Prism 6).

The subject of test [2] is S. aureus NB01006-AVR005 (gyrA S84L, grlA S80F, grlB E471K). The test is described as follows: microbe, parasite or virus in culture. The following applies: Staphylococcus aureus, 20 h, read-out: Antibacterial activity (MIC) NB01006-AVR005. Format: cell-based.
Test [3] relates to P. aeruginosa NB52023-CDK0006 (gyrA T83I, parC S87L). The test is described as follows: microbe, parasite or virus in culture. Format: cell-based. The settings on record: Pseudomonas aeruginosa, 20 h, read-out: Antibacterial activity (MIC) NB52023-CDK0006.
In test [4] the test system is E. coli ATCC 25922 (NB27001). Briefly: MIC, broth microdilution (CLSI). The class given is cell-based. The following applies: Escherichia coli, ATCC25922; E. coli ATCC 25922; 35° C., 20 hours; read-out: Antibacterial activity (MIC) NB27001. (Broth dilution looks for growth in wells or tubes with falling amounts of substance.)
In test [5] the test system is P. aeruginosa NB52023 (efflux deficient K1542, ΔmexX ΔmexB). Briefly: microbe, parasite or virus in culture. The following applies: Pseudomonas aeruginosa, 20 h, read-out: Antibacterial activity (MIC) NB52023. The class given is cell-based.
For test [6], the system named is E. coli NB27177 (efflux deficient CGSC 11430, ΔtolC732::kan). Briefly: microbe, parasite or virus in culture. The class given is cell-based. The settings on record: Escherichia coli, 20 h, read-out: Antibacterial activity (MIC) NB27177.
The test system of test [7] is S. aureus ATCC 29213 (NB01001). The test is described as follows: MIC, broth microdilution (CLSI). Format: cell-based. The settings on record: Staphylococcus aureus, ATCC29213; S. aureus ATCC 29213; 35° C., 20 hours; read-out: Antibacterial activity (MIC) NB01001.
Test [8] concerns P. aeruginosa NB52019 (wild-type PAO1). Briefly: MIC, broth microdilution (CLSI). The class given is cell-based. The following applies: Pseudomonas aeruginosa, PAO1, 20 h; read-out: Antibacterial activity (MIC) NB52019.

In general, pIC50 refers to the negative decadic logarithm of the IC50, by convention in mol/L.

pIC50: −log10 of the molar value. ≈ marks a conversion by molar mass, not a printed value. Where a name gives a salt, the structure may show the parent alone.

Sequence of E. coli DNA gyrase (GyrA-B) (P0AES4 whole entry): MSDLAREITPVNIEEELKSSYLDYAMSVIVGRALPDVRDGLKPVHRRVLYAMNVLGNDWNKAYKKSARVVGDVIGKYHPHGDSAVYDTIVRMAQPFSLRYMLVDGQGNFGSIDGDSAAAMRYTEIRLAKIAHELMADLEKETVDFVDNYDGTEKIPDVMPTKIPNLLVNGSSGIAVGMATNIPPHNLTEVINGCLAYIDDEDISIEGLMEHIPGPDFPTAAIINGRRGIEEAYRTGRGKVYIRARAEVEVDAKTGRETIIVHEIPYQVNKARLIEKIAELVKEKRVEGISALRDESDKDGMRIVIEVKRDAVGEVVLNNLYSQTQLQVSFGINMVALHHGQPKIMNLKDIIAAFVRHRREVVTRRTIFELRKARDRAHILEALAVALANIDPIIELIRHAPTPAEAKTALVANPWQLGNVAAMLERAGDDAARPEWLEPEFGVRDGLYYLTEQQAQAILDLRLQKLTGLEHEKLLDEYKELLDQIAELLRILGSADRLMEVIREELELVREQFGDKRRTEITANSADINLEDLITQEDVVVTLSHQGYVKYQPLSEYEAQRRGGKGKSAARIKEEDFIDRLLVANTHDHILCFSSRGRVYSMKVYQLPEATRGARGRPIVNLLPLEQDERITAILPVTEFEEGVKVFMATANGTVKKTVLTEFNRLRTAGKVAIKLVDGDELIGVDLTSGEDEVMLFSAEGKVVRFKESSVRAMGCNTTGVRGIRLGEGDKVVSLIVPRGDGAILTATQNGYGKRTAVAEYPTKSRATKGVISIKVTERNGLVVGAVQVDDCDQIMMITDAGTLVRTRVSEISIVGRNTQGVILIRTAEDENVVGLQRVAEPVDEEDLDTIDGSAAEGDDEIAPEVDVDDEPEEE

Take `Cc1c(N2CC[C@@H]([C@H](C)N)C2)c(F)cc2cc(N)c(=O)n(C3CC3)c12` [Example 8, 3-amino-7-((R)-3-((S)-1-aminoethyl)pyrrolidin-1-yl)-1-cyclopropyl-6-fluoro-8-methylquinolin-2(1H)-one hydrochloride salt]: the pIC50 in test [1] is 5.77.
As to `Cc1c(N2CC[C@@H]([C@H](C)N)C2)c(F)cc2c(-c3nnn[nH]3)cc(=O)n(C3CC3)c12` [Example 39, 7-((R)-3-((S)-1-aminoethyl)pyrrolidin-1-yl)-1-cyclopropyl-6-fluoro-8-methyl-4-(1H-tetrazol-5-yl)quinolin-2(1H)-one], the MIC is greater than 32 mg/L in test [2]; greater than 32 mg/L in test [3]; 32 mg/L (≈ 80.5 µM) in test [4]; greater than 32 mg/L in test [5]; 32 mg/L (≈ 80.5 µM) in test [6]; 32 mg/L (≈ 80.5 µM) in test [7]. For the same molecule, in test [8], the MIC was determined as 32 mg/L (≈ 80.5 µM). Further, the pIC50 in test [1] was 5.01.
Turning to `Cc1c(N2CC[C@@H]([C@H](C)N)C2)c(F)cc2cc(C(=O)O)c(=O)n(C3CC3)c12.Cl` [Example 1.1, 7-((R)-3-((S)-1-aminoethyl)pyrrolidin-1-yl)-1-cyclopropyl-6-fluoro-8-methyl-2-oxo-1,2-dihydroquinoline-3-carboxylic acid hydrochloride salt], in test [2], the MIC is 2 mg/L. The pIC50 in test [1] is 6.17.
Turning to `COc1c(N2CC[C@@H]([C@H](C)N)C2)c(F)cc2cc(C(=O)O)c(=O)n(C3CC3)c12` [Example 12, 7-((R)-3-((S)-1-aminoethyl)pyrrolidin-1-yl)-1-cyclopropyl-6-fluoro-8-methoxy-2-oxo-1,2-dihydroquinoline-3-carboxylic acid hydrochloride], in test [1], the pIC50 was 5.33.
Turning to `Cc1c(N2CCC(C3(N)CC3)C2)c(F)cc2ccc(=O)n(C3CC3)c12` (stereo not drawn) [Example 9.2, 7-(3-(1-Aminocyclopropyl)pyrrolidin-1-yl)-1-cyclopropyl-6-fluoro-8-methylquinolin-2(1H)-one], the MIC amounted to 0.125 mg/L (≈ 0.366 µM) in test [2]; 32 mg/L (≈ 93.7 µM) in test [3]; 4 mg/L (≈ 11.7 µM) in test [4]; 16 mg/L (≈ 46.9 µM) in test [5]; 0.06 mg/L (≈ 0.176 µM) in test [6]; 0.125 mg/L (≈ 0.366 µM) in test [7]. Besides, the MIC in test [8] was greater than 32 mg/L. Moreover, the pIC50 in test [1] was 5.92.
`Cc1c(N2CC[C@@H]([C@H](C)N)C2)c(F)cc2c(OCc3n[nH]c(=O)o3)cc(=O)n(C3CC3)c12` [Example 64, 5-(((7-((R)-3-((S)-1-aminoethyl)pyrrolidin-1-yl)-1-cyclopropyl-6-fluoro-8-methyl-2-oxo-1,2-dihydroquinolin-4-yl)oxy)methyl)-1,3,4-oxadiazol-2(3H)-one]: the MIC is 4 mg/L (≈ 9.02 µM) in test [2]; greater than 32 mg/L in test [3]; 32 mg/L (≈ 72.2 µM) in test [4]; greater than 32 mg/L in test [5]; 4 mg/L (≈ 9.02 µM) in test [6]; 8 mg/L (≈ 18 µM) in test [7]. The MIC in test [8] was greater than 32 mg/L. Further, the pIC50 in test [1] was 5.49.
Regarding `Cc1c(N2CC[C@@H]([C@H](C)N)C2)c(F)cc2c(C(=O)O)cc(=O)n(C3CC3)c12` [Example 33, 7-((R)-3-((S)-1-aminoethyl)pyrrolidin-1-yl)-1-cyclopropyl-6-fluoro-8-methyl-2-oxo-1,2-dihydroquinoline-4-carboxylic acid], the MIC is greater than 32 mg/L in test [2]; greater than 32 mg/L in test [3]; 32 mg/L (≈ 85.7 µM) in test [4]; greater than 32 mg/L in test [5]; 16 mg/L (≈ 42.8 µM) in test [6]; 32 mg/L (≈ 85.7 µM) in test [7]. Besides, the MIC in test [8] turned out to be 32 mg/L (≈ 85.7 µM). Also, in test [1], the pIC50 was 4.79.
For `Cc1c(-c2ccc(N)nc2)c(F)cc2cc(O)c(=O)n(C3CC3)c12` [Example 11.2, 7-(6-aminopyridin-3-yl)-1-cyclopropyl-6-fluoro-3-hydroxy-8-methylquinolin-2(1H)-one], the MIC in test [2] was 2 mg/L (≈ 6.15 µM); in test [3] it was greater than 32 mg/L; in test [4] it was 8 mg/L (≈ 24.6 µM); in test [5], 16 mg/L (≈ 49.2 µM); in test [6], 0.125 mg/L (≈ 0.384 µM); in test [7] it was 1 mg/L (≈ 3.07 µM). The MIC in test [8] was greater than 32 mg/L. Moreover, in test [1], the pIC50 is 5.09.
Regarding `CC(=O)NCc1cc(=O)n(C2CC2)c2c(C)c(N3CC[C@@H]([C@H](C)N)C3)c(F)cc12` [Example 46, N-((7-((R)-3-((S)-1-aminoethyl)pyrrolidin-1-yl)-1-cyclopropyl-6-fluoro-8-methyl-2-oxo-1,2-dihydroquinolin-4-yl)methyl)acetamide], the MIC in test [2] was 2 mg/L (≈ 4.99 µM); in test [3], greater than 32 mg/L; in test [4], 32 mg/L (≈ 79.9 µM); in test [5], greater than 32 mg/L; in test [6], 2 mg/L (≈ 4.99 µM); in test [7], 8 mg/L (≈ 20 µM). In addition, in test [8], the MIC stood at 32 mg/L (≈ 79.9 µM).
With `Cc1c(N2CC[C@@H]([C@H](C)N)C2)c(F)cc2c(C(=N)NO)cc(=O)n(C3CC3)c12` [Example 40, 7-((R)-3-((S)-1-aminoethyl)pyrrolidin-1-yl)-1-cyclopropyl-6-fluoro-N-hydroxy-8-methyl-2-oxo-1,2-dihydroquinoline-4-carboximidamide], the MIC in test [2] turned out to be 4 mg/L (≈ 10.3 µM); in test [3], 8 mg/L (≈ 20.6 µM); in test [4], 4 mg/L (≈ 10.3 µM); in test [5] it was 4 mg/L (≈ 10.3 µM); in test [6] it was 0.5 mg/L (≈ 1.29 µM); in test [7], 4 mg/L (≈ 10.3 µM). Further, the MIC in test [8] is 16 mg/L (≈ 41.3 µM).
On to `Cc1c(-c2ccc(N)nc2)ccc2cc(O)c(=O)n(C3CC3)c12` [Example 77, 7-(6-Aminopyridin-3-yl)-1-cyclopropyl-3-hydroxy-8-methylquinolin-2(1H)-one TFA salt], for which the MIC in test [2] was 32 mg/L; in test [3] it was greater than 32 mg/L; in test [4], 32 mg/L; in test [5], greater than 32 mg/L; in test [6], 0.5 mg/L; in test [7] it was 4 mg/L. In addition, the MIC in test [8] was greater than 32 mg/L.
For the molecule `Cc1c(N2CC[C@@H]([C@H](C)N)C2)c(F)cc2c(-c3cn[nH]c3)cc(=O)n(C3CC3)c12` [Example 18, 7-((R)-3-((S)-1-aminoethyl)pyrrolidin-1-yl)-1-cyclopropyl-6-fluoro-8-methyl-4-(1H-pyrazol-4-yl)quinolin-2(1H)-one], the MIC in test [2] is 0.25 mg/L (≈ 0.632 µM); in test [3], 16 mg/L (≈ 40.5 µM); in test [4], 32 mg/L (≈ 80.9 µM); in test [5], 8 mg/L (≈ 20.2 µM); in test [6] it was 0.125 mg/L (≈ 0.316 µM); in test [7], 0.5 mg/L (≈ 1.26 µM). In addition, in test [8], the MIC stood at 32 mg/L (≈ 80.9 µM).
Take `Cc1c(N2CCC(F)(CN)C2)c(F)cc2c(CN)cc(=O)n(C3CC3)c12` (stereo not drawn) [Example 81.33, 4-(aminomethyl)-7-(3-(aminomethyl)-3-fluoropyrrolidin-1-yl)-1-cyclopropyl-6-fluoro-8-methylquinolin-2(1H)-one]: the MIC stood at 1 mg/L (≈ 2.76 µM) in test [2]; 1 mg/L (≈ 2.76 µM) in test [3]; 0.5 mg/L (≈ 1.38 µM) in test [4]; 0.5 mg/L (≈ 1.38 µM) in test [5]; 0.06 mg/L (≈ 0.166 µM) in test [6]; 0.5 mg/L (≈ 1.38 µM) in test [7]. Further, in test [8], the MIC came to 2 mg/L (≈ 5.52 µM).
With `Cc1c(N2CC[C@@H](CN)C2)c(F)cc2c(C#N)cc(=O)n(C3CC3)c12` [Example 31, (S)-7-(3-(aminomethyl)pyrrolidin-1-yl)-1-cyclopropyl-6-fluoro-8-methyl-2-oxo-1,2-dihydroquinoline-4-carbonitrile], the MIC in test [2] was 0.06 mg/L (≈ 0.176 µM); in test [3], 4 mg/L (≈ 11.8 µM); in test [4], 2 mg/L (≈ 5.88 µM); in test [5], 2 mg/L (≈ 5.88 µM); in test [6], less than 0.03 mg/L; in test [7], 0.06 mg/L (≈ 0.176 µM). Further, in test [8], the MIC came out at 8 mg/L (≈ 23.5 µM).
In the case of `COC(=O)C#Cc1cc(=O)n(C2CC2)c2c(C)c(N3CC[C@@H]([C@H](C)N)C3)c(F)cc12` [Example 26, Methyl 3-(7-((R)-3-((S)-1-aminoethyl)pyrrolidin-1-yl)-1-cyclopropyl-6-fluoro-8-methyl-2-oxo-1,2-dihydroquinolin-4-yl)propiolate], the MIC came out at 0.25 mg/L (≈ 0.608 µM) in test [2]; 32 mg/L (≈ 77.8 µM) in test [3]; 32 mg/L (≈ 77.8 µM) in test [4]; 16 mg/L (≈ 38.9 µM) in test [5]; 1 mg/L (≈ 2.43 µM) in test [6]; 1 mg/L (≈ 2.43 µM) in test [7]. Besides, the MIC in test [8] was greater than 32 mg/L.
